Experimental data published in patent US10124012B2, “Method for treatment of hyperglycemia and hyperlipidemia” (priority 2016, dated 2018).

Assays:
Type in all cases: in vivo, C57BL/6J mice
[1] = tested on: phospho-AMPK (Thr^172)/total-AMPK; assay: Western blotting of phospho-AMPK/total-AMPK in skeletal muscle and liver; conditions: HFD-induced reduction, AnK 10, 20, 40, Feno 250, Metf 300 mg/kg/day, vs HF group
Description: (§1) The 4-week old male C57BL/6J mice (total amount n=63) were obtained from the National Laboratory Animal Center (Taipei, Taiwan). After acclimatization for one week, all of the mice were randomly assigned into a control (CON) group and a high-fat diet (HFD) group. […] After HFD feeding for 8 weeks, the HFD group was randomly subdivided into six groups (n=9 per group) receiving different treatments and fed on HFD. […] The HF+AnK1, HF+AnK2, and HF+AnK3 groups are collectively termed AnK-treated HFD groups in the following examples. The CON mice were administered vehicle. All treatments were administered via oral gavage once daily. After administration for 4 weeks, all mice were fasted 12 hours, and blood was collected from the retro-orbital sinus under ether anesthesia. At the end of the experiment, the mice were sacrificed via carbon dioxide inhalation. Liver, adipose tissue, and skeletal muscle were collected and immediately stored at −80° C. for target gene analysis.
About 0.1 g of liver tissue, skeletal muscle, or adipose tissue was used for the homogenate samples. Samples were powdered under liquid nitrogen and homogenized for 20 seconds in 500 μL buffer containing 20 mM Tris-HCl (pH 7.4 at 4° C.), 2% SDS, 5 mM EDTA, 5 mM EGTA, 1 mM dithiothreitol (DTT), 100 mM NaF, 2 mM sodium vanadate, 0.5 mM phenylmethylsulfonyl fluoride, 10 μg/mL leupeptin, and 10 μL/mL pepstatin. The total membrane fraction was used for measurement. The protein concentration in supernatant was determined with a BCA protein assay kit (Thermo Scientific, Rockford, Ill., USA). […] The membrane was blocked with 5% slim milk in Tris-buffered saline (TBS)(Amersham BioSciences, Uppsala, Sweden) containing 0.05% Tween-20 (Bio Rad, CA, USA) and incubated overnight at 4° C. with antibodies at 1:200 dilution. Subsequently, the membrane was washed three times with TBS containing 0.05% Tween-20 and incubated with secondary antibody anti-rabbit (1:1000)(Jackson ImmunoResearch Laboratories, Inc., PA, USA) for 1 hour. Immunoreactive bands were detected with ECL reagent kit (GE Healthcare BioSciences, Buckinghamshire, UK). The intensity of Western blot signals was analyzed using AlphaEase FC software (Alpha Innotech Corporation, Randburg, South Africa). The structural protein GAPDH in the samples was used as the loading control.

[2] = tested on: high-fat diet-fed C57BL/6J mouse; assay: Body weight, tissue weights and food intake in HFD-fed mice; conditions: for Absolute tissue weight Visceral fat: sum of EWAT and RWAT
Description: as §1
The metabolic parameters, including body weight, weight gain, and food intake, were performed as the following. Body weight was daily measured at the same time throughout the study. Body weight gain is considered as the weight difference between two consecutive days. The amount of pellet food was weighted, followed by weighting the amount of remaining food after 24 hours. The difference between the two weights is defined as daily food intake.

SREBP2 = assay: Liver mRNA by semi-quantitative RT-PCR: SREBP2; conditions: HFD-fed mice, oral gavage once daily 4 weeks, AnK 10, 20, 40, Feno 250, Metf 300 mg/kg/day, vs HF group
Description: as §1, with “At the end of the experiment, the mice were sacrificed via carbon dioxide inhalation. Liver, adipose tissue, and skeletal muscle were collected and immediately stored at −80° C. for target gene analysis.” left out
Total RNA from liver tissue of mice was isolated with a Trizol Reagent (Molecular Research Center, Inc., Cincinnati, Ohio, USA) according to the manufacturer's instructions. The integrity of the extracted total RNA was examined by 2% agarose gel electrophoresis, and the RNA concentration was determined by the ultraviolet (UV) light absorbency at 260 nm and 280 nm (Spectrophotometer U-2800A, Hitachi). […]
Levels of mRNA of target genes were quantified by semi-quantitative reverse transcription polymerase chain reaction (RT-PCR). […] PCR products were analyzed by 2% agarose gel and stained with ethidium bromide.

[3] = HF + AnK1: AnK 10 mg/kg/day oral gavage 4 weeks
[4] = HF + AnK2: AnK 20 mg/kg/day oral gavage 4 weeks
[5] = HF + AnK3: AnK 40 mg/kg/day oral gavage 4 weeks
[6] = HF + Metf: metformin 300 mg/kg/day oral gavage 4 weeks

C=C(CC[C@@H](C)[C@H]1CC[C@H]2C3=C(C(=O)C[C@]12C)[C@@]1(C)CC[C@@H](O)[C@](C)(O)[C@@H]1C[C@@H]3O)C(C)C(=O)O (stereo partly drawn) [AnK, 3α,4β,7β-trihydroxy-4α-methylergosta-8,24(28)-dien-11-on-25S-26-oic acid]
expression levels of phospho-AMPK/total-AMPK ([1]; liver): significantly reversed
expression levels of phospho-AMPK/total-AMPK ([1]; skeletal muscle): significantly reversed
Absolute tissue weight BAT [2, 3]: 0.178 ± 0.007 g
Absolute tissue weight EWAT [2, 3]: 0.867 ± 0.065 g
Absolute tissue weight Liver [2, 3]: 0.946 ± 0.030 g
Absolute tissue weight MWAT [2, 3]: 0.349 ± 0.020 g
Absolute tissue weight RWAT [2, 3]: 0.323 ± 0.039 g
Absolute tissue weight Skeletal muscle [2, 3]: 0.395 ± 0.036 g
Absolute tissue weight Spleen [2, 3]: 0.090 ± 0.003 g
Final body weight [2, 3]: 28.30 ± 0.61 g
Food intake [2, 3]: 1.95 ± 0.05 g/day/mouse
Weight gain [2, 3]: 1.39 ± 0.81 g
Absolute tissue weight BAT [2, 4]: 0.172 ± 0.010 g
Absolute tissue weight EWAT [2, 4]: 0.841 ± 0.062 g
Absolute tissue weight Liver [2, 4]: 0.888 ± 0.019 g
Absolute tissue weight MWAT [2, 4]: 0.340 ± 0.013 g
Absolute tissue weight RWAT [2, 4]: 0.339 ± 0.031 g
Absolute tissue weight Skeletal muscle [2, 4]: 0.364 ± 0.022 g
Absolute tissue weight Spleen [2, 4]: 0.085 ± 0.003 g
Final body weight [2, 4]: 27.55 ± 0.72 g
Food intake [2, 4]: 1.92 ± 0.07 g/day/mouse
Weight gain [2, 4]: 0.70 ± 0.86 g
Absolute tissue weight BAT [2, 5]: 0.175 ± 0.008 g
Absolute tissue weight EWAT [2, 5]: 0.809 ± 0.058 g
Absolute tissue weight Liver [2, 5]: 0.883 ± 0.018 g
Absolute tissue weight MWAT [2, 5]: 0.332 ± 0.025 g
Absolute tissue weight RWAT [2, 5]: 0.306 ± 0.040 g
Absolute tissue weight Skeletal muscle [2, 5]: 0.364 ± 0.028 g
Absolute tissue weight Spleen [2, 5]: 0.104 ± 0.007 g
Final body weight [2, 5]: 27.48 ± 0.46 g
Food intake [2, 5]: 1.98 ± 0.04 g/day/mouse
Weight gain [2, 5]: 0.58 ± 0.35 g
Absolute tissue weight Visceral fat [2, 3]: 1.190 ± 0.093 g
Absolute tissue weight Visceral fat [2, 4]: 1.180 ± 0.106 g
Absolute tissue weight Visceral fat [2, 5]: 1.154 ± 0.096 g
mRNA levels of SREBP2 (SREBP2): significantly decreased

CN(C)C(=N)N=C(N)N [Metf, metformin, reference compound]
expression levels of phospho-AMPK/total-AMPK ([1]; liver): significantly reversed
expression levels of phospho-AMPK/total-AMPK ([1]; skeletal muscle): significantly reversed
Absolute tissue weight BAT [2, 6]: 0.220 ± 0.025 g
Absolute tissue weight EWAT [2, 6]: 0.813 ± 0.064 g
Absolute tissue weight Liver [2, 6]: 0.908 ± 0.031 g
Absolute tissue weight MWAT [2, 6]: 0.270 ± 0.018 g
Absolute tissue weight RWAT [2, 6]: 0.298 ± 0.027 g
Absolute tissue weight Skeletal muscle [2, 6]: 0.380 ± 0.025 g
Absolute tissue weight Spleen [2, 6]: 0.093 ± 0.006 g
Final body weight [2, 6]: 27.86 ± 0.72 g
Food intake [2, 6]: 1.89 ± 0.04 g/day/mouse
Weight gain [2, 6]: 0.92 ± 0.08 g
Absolute tissue weight Visceral fat [2, 6]: 1.111 ± 0.077 g
mRNA levels of SREBP2 (SREBP2): significantly decreased
